Values of other authors in US20250049677A1, “Oxa-Macrocyclic Musk as Fragrance Compounds” (Symrise AG, priority 2021, published 2025).

How the values were obtained:
[1] = background statement on prior art
[2] = background statement on prior art; remark: listed apart in the source

- Solubility in water [1]: only very slightly soluble in water
- Biodegradability [2]: badly biodegradable
Compound: C[C@@H]1CCCCCCCCCCCCC(=O)C1 [Muscone, (R)-3-methylcyclopentadecanone]
